Test system: 945468-187-T-J3-PDC spheroids with HUVEC/MSC, viability
Assay: Anticancer human tumor 945468-187-T-J3-PDC patient-derived rectal carcinoma cell line growth inhibition [PI3K]
Conditions: for IC50: curve of first compound; for viability, T/C: stronger effect = lower value
Procedure, shortened: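 Agents were dosed from a top concentration near clinical Cmax (otherwise 10 microM) in half-log decrements, alone or combined with PI3K inhibitors. The spheroids contain tumor cells plus endothelial (HUVEC) and MSC stroma; viability is measured.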

[1] = second compound 0.0316 µM, first compound 0.0316 µM
[2] = second compound 0.0316 µM, first compound 0.1 µM
[3] = second compound 0.0316 µM, first compound 0.316 µM
[4] = second compound 0.0316 µM, first compound 1 µM
[5] = second compound 0.0316 µM, first compound 3.16 µM
[6] = second compound 0.0316 µM, first compound 10 µM
[7] = second compound 0.1 µM, first compound 0.0316 µM
[8] = second compound 0.1 µM, first compound 0.1 µM
[9] = second compound 0.1 µM, first compound 0.316 µM
[10] = second compound 0.1 µM, first compound 1 µM
[11] = second compound 0.1 µM, first compound 3.16 µM
[12] = second compound 0.1 µM, first compound 10 µM
[13] = second compound 0.316 µM, first compound 0.0316 µM
[14] = second compound 0.316 µM, first compound 0.1 µM
[15] = second compound 0.316 µM, first compound 0.316 µM
[16] = second compound 0.316 µM, first compound 1 µM
[17] = second compound 0.316 µM, first compound 3.16 µM
[18] = second compound 0.316 µM, first compound 10 µM
[19] = second compound 1 µM, first compound 0.0316 µM
[20] = second compound 1 µM, first compound 0.1 µM
[21] = second compound 1 µM, first compound 0.316 µM
[22] = second compound 1 µM, first compound 1 µM
[23] = second compound 1 µM, first compound 3.16 µM
[24] = second compound 1 µM, first compound 10 µM
[25] = second compound 3.16 µM, first compound 0.0316 µM
[26] = second compound 3.16 µM, first compound 0.1 µM
[27] = second compound 3.16 µM, first compound 0.316 µM
[28] = second compound 3.16 µM, first compound 1 µM
[29] = second compound 3.16 µM, first compound 3.16 µM
[30] = second compound 3.16 µM, first compound 10 µM
[31] = second compound 10 µM, first compound 0.0316 µM
[32] = second compound 10 µM, first compound 0.1 µM
[33] = second compound 10 µM, first compound 0.316 µM
[34] = second compound 10 µM, first compound 1 µM
[35] = second compound 10 µM, first compound 3.16 µM
[36] = second compound 10 µM, first compound 10 µM
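Note: spheroids exposed to agents for 7 days before viability read.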
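Throughout, for viability, T/C: 100% = DMSO vehicle control viability.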

Cn1nccc1Nc1nccc(-c2ccn(C(CO)c3ccc(Cl)c(F)c3)c(=O)c2)n1 (stereo unspecified) + CC(Nc1ncnc2nc[nH]c12)c1cc2cccc(Cl)c2c(=O)n1-c1ccccc1
IC50 (second compound 0.0316 µM): > 10 µM | IC50 (second compound 0.1 µM): > 10 µM | IC50 (second compound 0.316 µM): > 10 µM | IC50 (second compound 1 µM): > 10 µM | IC50 (second compound 3.16 µM): > 10 µM | IC50 (second compound 10 µM): > 10 µM | viability, T/C [1]: 126% | viability, T/C [2]: 108% | viability, T/C [3]: 117% | viability, T/C [4]: 107% | viability, T/C [5]: 113% | viability, T/C [6]: 132% | viability, T/C [7]: 94.3% | viability, T/C [8]: 101% | viability, T/C [9]: 113% | viability, T/C [10]: 116% | viability, T/C [11]: 117% | viability, T/C [12]: 116% | viability, T/C [13]: 93.3% | viability, T/C [14]: 107% | viability, T/C [15]: 111% | viability, T/C [16]: 114% | viability, T/C [17]: 116% | viability, T/C [18]: 139% | viability, T/C [19]: 113% | viability, T/C [20]: 127% | viability, T/C [21]: 102% | viability, T/C [22]: 121% | viability, T/C [23]: 118% | viability, T/C [24]: 136% | viability, T/C [25]: 108% | viability, T/C [26]: 109% | viability, T/C [27]: 106% | viability, T/C [28]: 120% | viability, T/C [29]: 116% | viability, T/C [30]: 122% | viability, T/C [31]: 104% | viability, T/C [32]: 108% | viability, T/C [33]: 111% | viability, T/C [34]: 123% | viability, T/C [35]: 108% | viability, T/C [36]: 123%

C#Cc1c(F)ccc2cc(O)cc(-c3ncc4c(N5CC6CCC(C5)N6)nc(OCC56CCCN5CC(F)C6)nc4c3F)c12 (stereo unspecified) + Cc1nc(NC(=O)N2CCCC2C(N)=O)sc1-c1ccnc(C(C)(C)C(F)(F)F)c1
IC50 (second compound 0.0316 µM): > 10 µM | IC50 (second compound 0.1 µM): > 10 µM | IC50 (second compound 0.316 µM): > 10 µM | IC50 (second compound 1 µM): > 10 µM | IC50 (second compound 3.16 µM): 7.25 µM | IC50 (second compound 10 µM): 0.464 µM | viability, T/C [1]: 96.8% | viability, T/C [2]: 101% | viability, T/C [3]: 95.4% | viability, T/C [4]: 107% | viability, T/C [5]: 127% | viability, T/C [6]: 119% | viability, T/C [7]: 105% | viability, T/C [8]: 115% | viability, T/C [9]: 101% | viability, T/C [10]: 113% | viability, T/C [11]: 132% | viability, T/C [12]: 115% | viability, T/C [13]: 109% | viability, T/C [14]: 105% | viability, T/C [15]: 97.6% | viability, T/C [16]: 113% | viability, T/C [17]: 134% | viability, T/C [18]: 118% | viability, T/C [19]: 114% | viability, T/C [20]: 110% | viability, T/C [21]: 109% | viability, T/C [22]: 112% | viability, T/C [23]: 127% | viability, T/C [24]: 106% | viability, T/C [25]: 107% | viability, T/C [26]: 110% | viability, T/C [27]: 111% | viability, T/C [28]: 103% | viability, T/C [29]: 80.9% | viability, T/C [30]: 38% | viability, T/C [31]: 70.4% | viability, T/C [32]: 59.9% | viability, T/C [33]: 50% | viability, T/C [34]: 47.8% | viability, T/C [35]: 26.9% | viability, T/C [36]: 9.1%

CNC(=O)c1ccc(N2C(=S)N(c3ccc(C#N)c(C(F)(F)F)c3)C(=O)C2(C)C)cc1F + CC(Nc1ccc2c(c1)OCCn1cc(N3C(=O)OCC3C(F)F)nc1-2)C(N)=O
IC50 (second compound 0.00316 µM): > 10 µM | IC50 (second compound 0.01 µM): > 10 µM | IC50 (second compound 0.0316 µM): > 10 µM | IC50 (second compound 0.1 µM): > 10 µM | IC50 (second compound 0.316 µM): > 10 µM | IC50 (second compound 1 µM): > 10 µM | viability, T/C (second compound 0.00316 µM, first compound 0.0316 µM): 92.4% | viability, T/C (second compound 0.00316 µM, first compound 0.1 µM): 108% | viability, T/C (second compound 0.00316 µM, first compound 0.316 µM): 109% | viability, T/C (second compound 0.00316 µM, first compound 1 µM): 108% | viability, T/C (second compound 0.00316 µM, first compound 3.16 µM): 132% | viability, T/C (second compound 0.00316 µM, first compound 10 µM): 103% | viability, T/C (second compound 0.01 µM, first compound 0.0316 µM): 105% | viability, T/C (second compound 0.01 µM, first compound 0.1 µM): 124% | viability, T/C (second compound 0.01 µM, first compound 0.316 µM): 115% | viability, T/C (second compound 0.01 µM, first compound 1 µM): 129% | viability, T/C (second compound 0.01 µM, first compound 3.16 µM): 111% | viability, T/C (second compound 0.01 µM, first compound 10 µM): 108% | viability, T/C [1]: 110% | viability, T/C [2]: 118% | viability, T/C [3]: 111% | viability, T/C [4]: 126% | viability, T/C [5]: 109% | viability, T/C [6]: 111% | viability, T/C [7]: 121% | viability, T/C [8]: 108% | viability, T/C [9]: 125% | viability, T/C [10]: 128% | viability, T/C [11]: 126% | viability, T/C [12]: 109% | viability, T/C [13]: 124% | viability, T/C [14]: 104% | viability, T/C [15]: 108% | viability, T/C [16]: 115% | viability, T/C [17]: 121% | viability, T/C [18]: 108% | viability, T/C [19]: 79.8% | viability, T/C [20]: 63.1% | viability, T/C [21]: 72.7% | viability, T/C [22]: 81.1% | viability, T/C [23]: 94.5% | viability, T/C [24]: 94.3%

From PubChem BioAssay AID1963968 (Molecular Pharmacology Branch, DTP, NCI, 2024)
